From PubChem BioAssay AID1963439 (Molecular Pharmacology Branch, DTP, NCI, 2024)

Tested on: NCI-H196 complex spheroids with HUVEC/MSC, growth % T/C
Assay: Anticancer human tumor NCI-H196 cell line growth inhibition [Asc];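 also: spheroids exposed to compound for 7 days before measurement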;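 as to viability, T/C: 100% = DMSO vehicle control wells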
Settings: for viability, T/C: stronger effect = lower value; active = viability on the fitted dose curve at most 10% of control; inactive = the rest
Procedure: Multicellular complex tumor spheroid response to apoptosis pathway targeting inhibitors Alrizomadlin, Pelcitoclax, and Dasminapant in combination with a variety of drugs and investigational agents in selected tumor cell lines
The MDM2 inhibitor alrizomadlin, the Bcl-2/Bcl-xL inhibitor pelcitoclax, and the IAPs inhibitor dasminapant were evaluated both individually and in combination with standard of care and investigational anticancer small molecules within a complex spheroid model of solid tumors. . Complex spheroids include a stromal component modeled by human endothelial cells (HUVEC) and fibroblasts modeled by human mesenchymal stem cells (MSCs). The concentration ranges selected for each drug and investigational agent were based upon clinically achievable concentrations if the clinical Cmax of the agent was known.
Compounds. The drugs and investigational agents: alrizomadlin (APG-115; NSC831270), pelcitoclax (APG-1252; NSC835773), dasminapant (APG-1387;NSC834197), TAK-243 (NSC785004), copanlisib (NSC809693), olaparib (NSC753686), talazoparib (NSC767125), cobimetinib (NSC 768068), eltanexor (KPT-8602, NSC 794443), abemaciclib (NSC 768073), sotorasib (NSC818433), adagrasib (NSC 831453), MRTX-1133 (NSC 836407), Iadademestat (ORY1001, NSC 806812), and RMC-4630 (NSC839698), were obtained from the NCI Developmental Therapeutics Program Chemical Repository. The FDA-approved anticancer drug set is available from the Developmental Therapeutics Program at https://dtp.cancer.gov/organization/dscb/obtaining/available plates.htm. […] The stock solutions were prepared in dimethyl sulfoxide (DMSO, Sigma-Aldrich, St. Louis, MO, cat. D2650) at 800-fold the tested concentration and stored at -70 degrees C prior to their use. All drugs and investigational agents were tested over a range starting from a high concentration at or near the clinical Cmax and decreasing in half-log increments. If the clinical Cmax for an agent had not been determined, the highest concentration tested was 10 microM.
The patient-derived cancer (PDC) cell lines include five colon adenocarcinomas: 186277-243-T-J2-PDC, 616215-338-R-J1-PDC, 439559-082-T-J2-PDC, 463943-066-T-J2-PDC, and 519858-162-T-J1-PDC; three pancreatic carcinomas: 323965-272-R-J2-PDC, 521955-158-R6-J3-PDC, and 521955-158-R2-J5-PDC; two uterine sarcomas: 327498-152-R-J2-PDC and 993429-296-R-J1-PDC; two rhabdomyosarcomas: 755483-174-R-J1-PDC and 772245-204-R-J1-PDC; two soft tissue sarcomas: 126254-015-R-J1-PDC and 494315-158-R-J1-PDC; two malignant fibrous histiocytomas: 317291-083-R-J1-PDC and 596521-263-R-J1-PDC; two breast carcinomas: 171881-019-R-J1-PDC and 885512-296-R-J2-PDC; and one ovarian carcinoma: 6556581-035-R-J-PDC were obtained from the NCI PDMR, (https://pdmr.cancer.gov). The established cell lines HSSY-2 synovial sarcoma (RRID:CVCL 8719), SYO-1 synovial sarcoma (RRID:CVCL_7146), MPNST malignant peripheral neural sheath tumor were obtained from the Sloan Kettering Institute. The following established cell lines were purchased from the American Type Culture Collection (ATCC, Manassas, VA), Sor the received from the NCI repository:, PANC-1 pancreatic carcinoma (CRL-1469, RRID:CVCL_0480), OVCAR-5 ovarian carcinoma (RRID:CVCL_1628), OVCAR-8 ovarian carcinoma (RRID:CVCL_1629), , MCF-7 breast carcinoma (CRL-12584, RRID:CVCL_0031), MDA-MB-231 breast carcinoma (CRL-12532, RRID:CVCL_0062), NCI-H1876 small cell lung carcinoma (CRL-5902, RRID:CVCL_1503), NCI-H510A small cell lung carcinoma (HTB-184, RRID:CVCL_1565), NCI-H1417 (CRL-5869, RRID:CVCL_1469), and NCI-H196 small cell lung carcinoma (CRL-5823, RRID:CVCL_1509). Dr. Peter Houghton (Greehey Children's Cancer Research Institute, University of Texas Health Science Center, San Antonio, TX) provided Rh-18 rhabdomyosarcoma (RRID:CVCL_1659). Pooled donor human umbilical vein endothelial cells (HUVEC, Lonza, cat. CC-2519) and human mesenchymal stem cells (hMSC, Lonza, cat. PT-2501) were purchased from Lonza (Walkersville, MD).
Cell Culture. […]

[1] = curve of first compound, second compound 0.03 µM
[2] = curve of first compound, second compound 0.0949 µM
[3] = curve of first compound, second compound 0.3 µM
[4] = curve of first compound, second compound 0.949 µM
[5] = curve of first compound, second compound 3 µM
[6] = second compound 0.03 µM, first compound 0.00316 µM
[7] = second compound 0.03 µM, first compound 0.01 µM
[8] = second compound 0.03 µM, first compound 0.0316 µM
[9] = second compound 0.03 µM, first compound 0.1 µM
[10] = second compound 0.0949 µM, first compound 0.00316 µM
[11] = second compound 0.0949 µM, first compound 0.01 µM
[12] = second compound 0.0949 µM, first compound 0.0316 µM
[13] = second compound 0.0949 µM, first compound 0.1 µM
[14] = second compound 0.3 µM, first compound 0.00316 µM
[15] = second compound 0.3 µM, first compound 0.01 µM
[16] = second compound 0.3 µM, first compound 0.0316 µM
[17] = second compound 0.3 µM, first compound 0.1 µM
[18] = second compound 0.949 µM, first compound 0.00316 µM
[19] = second compound 0.949 µM, first compound 0.01 µM
[20] = second compound 0.949 µM, first compound 0.0316 µM
[21] = second compound 0.949 µM, first compound 0.1 µM
[22] = second compound 3 µM, first compound 0.00316 µM
[23] = second compound 3 µM, first compound 0.01 µM
[24] = second compound 3 µM, first compound 0.0316 µM
[25] = second compound 3 µM, first compound 0.1 µM
[26] = second compound 0.03 µM, first compound 0.316 µM
[27] = second compound 0.03 µM, first compound 1 µM
[28] = second compound 0.0949 µM, first compound 0.316 µM
[29] = second compound 0.0949 µM, first compound 1 µM
[30] = second compound 0.3 µM, first compound 0.316 µM
[31] = second compound 0.3 µM, first compound 1 µM
[32] = second compound 0.949 µM, first compound 0.316 µM
[33] = second compound 0.949 µM, first compound 1 µM
[34] = second compound 3 µM, first compound 0.316 µM
[35] = second compound 3 µM, first compound 1 µM

Cc1c(S(C)(=O)=O)c(-c2cc(F)cc(N3CCN(c4ccc(NS(=O)(=O)c5ccc(NC(CCN6CCC(C(=O)OCCCP(=O)(O)O)CC6)CSc6ccccc6)c(S(=O)(=O)C(F)(F)F)c5)cc4)CC3)c2)c(-c2ccc(Cl)cc2)n1C(C)C (stereo unspecified)
inactive: viability, T/C (compound 0.1 µM) 94.5% [middle of 14 runs] | viability, T/C (compound 0.316 µM) 92.9% [middle of 14 runs] | viability, T/C (compound 1 µM) 91.4% [middle of 14 runs] | viability, T/C (compound 3.16 µM) 82.2% [middle of 14 runs] | viability, T/C (compound 10 µM) 75.3% [middle of 14 runs]
> 10000 nM: IC50 (compound alone, run of 09/27/2022)

Cn1ncnc1[C@H]1c2n[nH]c(=O)c3cc(F)cc(c23)N[C@@H]1c1ccc(F)cc1 + CCN1C(C(=O)NC23CCC(C(=O)O)(CC2)CC3)C(c2cccc(Cl)c2F)C2(C(=O)Nc3cc(Cl)ccc32)C12CCCCC2
inactive: viability, T/C (second compound 0.03 µM, first compound 0.000316 µM) 107% | viability, T/C (second compound 0.03 µM, first compound 0.001 µM) 109% | viability, T/C [6] 107% | viability, T/C [7] 108% | viability, T/C [8] 107% | viability, T/C [9] 104% | viability, T/C (second compound 0.0949 µM, first compound 0.000316 µM) 118% | viability, T/C (second compound 0.0949 µM, first compound 0.001 µM) 125% | viability, T/C [10] 114% | viability, T/C [11] 102% | viability, T/C [12] 114% | viability, T/C [13] 109% | viability, T/C (second compound 0.3 µM, first compound 0.000316 µM) 118% | viability, T/C (second compound 0.3 µM, first compound 0.001 µM) 128% | viability, T/C [14] 119% | viability, T/C [15] 121% | viability, T/C [16] 113% | viability, T/C [17] 112% | viability, T/C (second compound 0.949 µM, first compound 0.000316 µM) 139% | viability, T/C (second compound 0.949 µM, first compound 0.001 µM) 138% | viability, T/C [18] 120% | viability, T/C [19] 118% | viability, T/C [20] 112% | viability, T/C [21] 126% | viability, T/C (second compound 3 µM, first compound 0.000316 µM) 124% | viability, T/C (second compound 3 µM, first compound 0.001 µM) 136% | viability, T/C [22] 132% | viability, T/C [23] 129% | viability, T/C [24] 131% | viability, T/C [25] 121%
> 100 nM: IC50 [1] | IC50 [2] | IC50 [3] | IC50 [4] | IC50 [5]

O=C(c1cc(Cc2n[nH]c(=O)c3ccccc23)ccc1F)N1CCN(C(=O)C2CC2)CC1 + CCN1C(C(=O)NC23CCC(C(=O)O)(CC2)CC3)C(c2cccc(Cl)c2F)C2(C(=O)Nc3cc(Cl)ccc32)C12CCCCC2
> 10000 nM: IC50 [1] | IC50 [2] | IC50 [3] | IC50 [4] | IC50 [5]
inactive: viability, T/C [8] 102% | viability, T/C [9] 116% | viability, T/C [26] 95.9% | viability, T/C [27] 100% | viability, T/C (second compound 0.03 µM, first compound 3.16 µM) 104% | viability, T/C (second compound 0.03 µM, first compound 10 µM) 97.9% | viability, T/C [12] 108% | viability, T/C [13] 105% | viability, T/C [28] 110% | viability, T/C [29] 100% | viability, T/C (second compound 0.0949 µM, first compound 3.16 µM) 102% | viability, T/C (second compound 0.0949 µM, first compound 10 µM) 104% | viability, T/C [16] 106% | viability, T/C [17] 107% | viability, T/C [30] 123% | viability, T/C [31] 116% | viability, T/C (second compound 0.3 µM, first compound 3.16 µM) 107% | viability, T/C (second compound 0.3 µM, first compound 10 µM) 100% | viability, T/C [20] 120% | viability, T/C [21] 124% | viability, T/C [32] 121% | viability, T/C [33] 121% | viability, T/C (second compound 0.949 µM, first compound 3.16 µM) 121% | viability, T/C (second compound 0.949 µM, first compound 10 µM) 105% | viability, T/C [24] 116% | viability, T/C [25] 120% | viability, T/C [34] 108% | viability, T/C [35] 110% | viability, T/C (second compound 3 µM, first compound 3.16 µM) 128% | viability, T/C (second compound 3 µM, first compound 10 µM) 110%

O=C(c1ccc(F)c(F)c1Nc1ccc(I)cc1F)N1CC(O)([C@@H]2CCCCN2)C1 + CCN1C(C(=O)NC23CCC(C(=O)O)(CC2)CC3)C(c2cccc(Cl)c2F)C2(C(=O)Nc3cc(Cl)ccc32)C12CCCCC2
inactive: viability, T/C [6] 107% | viability, T/C [7] 110% | viability, T/C [8] 101% | viability, T/C [9] 111% | viability, T/C [26] 123% | viability, T/C [27] 157% | viability, T/C [10] 105% | viability, T/C [11] 121% | viability, T/C [12] 108% | viability, T/C [13] 112% | viability, T/C [28] 127% | viability, T/C [29] 131% | viability, T/C [14] 104% | viability, T/C [15] 114% | viability, T/C [16] 123% | viability, T/C [17] 115% | viability, T/C [30] 125% | viability, T/C [31] 122% | viability, T/C [18] 115% | viability, T/C [19] 120% | viability, T/C [20] 125% | viability, T/C [21] 120% | viability, T/C [32] 145% | viability, T/C [33] 144% | viability, T/C [22] 124% | viability, T/C [23] 123% | viability, T/C [24] 126% | viability, T/C [25] 121% | viability, T/C [34] 136% | viability, T/C [35] 154%
> 1000 nM: IC50 [1] | IC50 [2] | IC50 [3] | IC50 [4] | IC50 [5]
